Data taken from PubChem BioAssay (NCI).
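Step 1: Grow cells in 96-well plates. Step 2: Expose to compound for 48 hours at 5 concentrations. Step 3: Interpolate endpoints linearly; if unreached, use highest concentration. The concentration for 50% growth inhibition is given as GI50. The concentration for full growth arrest is given as TGI.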

Legend:
Test in all cases: DTP human tumour cell line panel, 48 h
[1] = tested on: A498 renal
[2] = tested on: ACHN renal
[3] = tested on: COLO 205 colon
[4] = tested on: MOLT-4 leukemia
[5] = tested on: OVCAR-5 ovarian
[6] = tested on: SK-MEL-2 melanoma
[7] = tested on: SK-OV-3 ovarian
[8] = tested on: SN12C renal
[9] = tested on: SNB-19 CNS
[10] = tested on: U251 CNS

SMILES: CC(C)(C)OC(=O)N(CCCn1c2c(c3ccccc3c1=O)C(=O)c1ccccc1-2)CCN(CCCn1c2c(c3ccccc3c1=O)C(=O)c1ccccc1-2)C(=O)OC(C)(C)C
- GI50 [1]: > 50 µM
- TGI [1]: > 50 µM
- GI50 [2]: 11.2 µM
- TGI [2]: 48.9 µM
- GI50 [3]: > 50 µM
- TGI [3]: > 50 µM
- GI50 [4]: 4 µM
- TGI [4]: 16.1 µM
- GI50 [5]: > 50 µM
- TGI [5]: > 50 µM
- GI50 [6]: > 50 µM
- TGI [6]: > 50 µM
- GI50 [7]: > 50 µM
- TGI [7]: > 50 µM
- GI50 [8]: 39.9 µM
- TGI [8]: > 50 µM
- GI50 [9]: 37.8 µM
- TGI [9]: > 50 µM
- GI50 [10]: 15.5 µM
- TGI [10]: > 50 µM

SMILES: Cc1ccc(S(=O)(=O)NC(C)C(=O)O)cc1 (stereo not given)
- TGI [1]: > 100 µM
- TGI [2]: > 100 µM
- TGI [3]: > 100 µM
- TGI [4]: > 100 µM
- TGI [5]: > 100 µM
- TGI [6]: > 100 µM
- TGI [7]: > 100 µM
- TGI [8]: > 100 µM
- TGI [9]: > 100 µM
- TGI [10]: > 100 µM

SMILES: C#Cc1cccc(N2C(=O)CC(=P(c3ccccc3)(c3ccccc3)c3ccccc3)C2=O)c1
- TGI [1]: > 100 µM
- TGI [2]: > 100 µM
- TGI [3]: > 100 µM
- TGI [4]: > 100 µM
- TGI [5]: > 100 µM
- TGI [6]: > 100 µM
- TGI [7]: > 100 µM
- TGI [8]: > 100 µM
- TGI [9]: > 100 µM
- TGI [10]: > 100 µM

SMILES: CCC(=O)[O-].CCC(=O)[O-].N.N.N.N.[Co+3].[O-][Cl+3]([O-])([O-])[O-]
- GI50 [1]: > 100 µM
- TGI [1]: > 100 µM
- GI50 [2]: > 100 µM
- TGI [2]: > 100 µM
- GI50 [3]: > 100 µM
- TGI [3]: > 100 µM
- GI50 [4]: > 100 µM
- TGI [4]: > 100 µM
- GI50 [5]: > 100 µM
- TGI [5]: > 100 µM
- GI50 [6]: > 100 µM
- TGI [6]: > 100 µM
- GI50 [7]: > 100 µM
- TGI [7]: > 100 µM
- GI50 [8]: > 100 µM
- TGI [8]: > 100 µM
- GI50 [9]: > 100 µM
- TGI [9]: > 100 µM
- GI50 [10]: > 100 µM
- TGI [10]: > 100 µM

SMILES: CCCCCCCCOC(=O)c1cc(O)c(O)c(O)c1
- GI50 [1]: 8.26 µM
- TGI [1]: 24.7 µM
- GI50 [2]: 1.6 µM
- TGI [2]: 13.8 µM
- GI50 [3]: 9.36 µM
- TGI [3]: 24.8 µM
- GI50 [4]: 0.437 µM
- TGI [4]: 16.5 µM
- GI50 [5]: 12.5 µM
- TGI [5]: 52.9 µM
- GI50 [6]: 4.72 µM
- TGI [6]: 18.2 µM
- GI50 [7]: 7.28 µM
- TGI [7]: 28 µM
- GI50 [8]: 3.21 µM
- TGI [8]: 31.7 µM
- GI50 [9]: 5.27 µM
- TGI [9]: > 58.9 µM
- GI50 [10]: 3.02 µM
- TGI [10]: 28.6 µM

SMILES: COc1ccc(S(=O)(=O)N2CCCCC2)cc1NC(=O)c1[nH]c(C)c2c1CCCCC2=O
- GI50 [1]: 1.08 µM
- TGI [1]: 3.98 µM
- GI50 [2]: 2.34 µM
- TGI [2]: > 100 µM
- GI50 [3]: 1.71 µM
- TGI [3]: 26.4 µM
- GI50 [4]: 4.31 µM
- TGI [4]: > 100 µM
- GI50 [5]: 2.53 µM
- TGI [5]: > 100 µM
- GI50 [6]: 2.4 µM
- TGI [6]: 31 µM
- GI50 [7]: 2.14 µM
- TGI [7]: 44.4 µM
- GI50 [8]: 3.16 µM
- TGI [8]: > 100 µM
- GI50 [9]: 3.8 µM
- TGI [9]: > 100 µM
- GI50 [10]: 2.29 µM
- TGI [10]: 70.4 µM

SMILES: CC(C)NCCCNC1=C(Cl)C(=O)c2ccccc2C1=O
- GI50 [1]: 12.2 µM
- TGI [1]: 25.1 µM
- GI50 [2]: 12.6 µM
- TGI [2]: 25.8 µM
- GI50 [3]: 1.87 µM
- TGI [3]: 3.56 µM
- GI50 [4]: 2.05 µM
- TGI [4]: 4.61 µM
- GI50 [5]: 14.3 µM
- TGI [5]: 31.1 µM
- GI50 [6]: 13.5 µM
- TGI [6]: 30 µM
- GI50 [7]: 15.8 µM
- TGI [7]: 29.4 µM
- GI50 [8]: 1.89 µM
- TGI [8]: 3.93 µM
- GI50 [9]: 12.8 µM
- TGI [9]: 26 µM
- GI50 [10]: 2.7 µM
- TGI [10]: 6.82 µM

SMILES: Cc1ccc2nc(NC(=O)CSC(=S)N3CCN(Cc4ccccc4)CC3)sc2c1
- GI50 [1]: > 100 µM
- TGI [1]: > 100 µM
- GI50 [2]: > 100 µM
- TGI [2]: > 100 µM
- GI50 [3]: > 100 µM
- TGI [3]: > 100 µM
- GI50 [4]: > 100 µM
- TGI [4]: > 100 µM
- GI50 [5]: > 100 µM
- TGI [5]: > 100 µM
- GI50 [6]: > 100 µM
- TGI [6]: > 100 µM
- GI50 [7]: > 100 µM
- TGI [7]: > 100 µM
- GI50 [8]: > 100 µM
- TGI [8]: > 100 µM
- GI50 [9]: > 100 µM
- TGI [9]: > 100 µM
- GI50 [10]: > 100 µM
- TGI [10]: > 100 µM

SMILES: CC[O+]=c1cccc2ssnc1-2
- TGI [1]: > 100 µM
- TGI [2]: > 100 µM
- TGI [3]: > 100 µM
- TGI [4]: > 100 µM
- TGI [5]: > 100 µM
- TGI [6]: > 100 µM
- TGI [7]: > 100 µM
- TGI [8]: > 100 µM
- TGI [9]: > 100 µM
- TGI [10]: > 100 µM

SMILES: O=C(O/N=C1/CCC/C1=C\c1ccccc1)c1ccc(Cl)cc1
- TGI [1]: > 100 µM
- TGI [2]: > 100 µM
- TGI [3]: > 100 µM
- TGI [4]: > 100 µM
- TGI [5]: > 100 µM
- TGI [6]: > 100 µM
- TGI [7]: > 100 µM
- TGI [8]: > 100 µM
- TGI [9]: > 100 µM
- TGI [10]: > 89.8 µM

SMILES: O=C(O)c1cc2c3c(c1)[C@H]1C=CC[C@H]1CN3CC1CC=CC21 (stereo not given in full)
- TGI [1]: > 100 µM
- TGI [2]: > 100 µM
- TGI [3]: > 100 µM
- TGI [4]: > 100 µM
- TGI [5]: > 100 µM
- TGI [6]: > 100 µM
- TGI [7]: > 100 µM
- TGI [8]: > 100 µM
- TGI [9]: > 100 µM
- TGI [10]: > 100 µM

SMILES: CC(=O)OC1C(O)COC(Oc2c(C)c3c4c(c2O)[C@@H](C)CC[C@@H]4[C@@H](C)C[C@H]3C=C(C)C)C1O (stereo not given in full)
- GI50 [1]: 16.6 µM
- TGI [1]: 32.7 µM
- GI50 [2]: 18.7 µM
- TGI [2]: 42.5 µM
- GI50 [3]: 21.5 µM
- TGI [3]: 50.5 µM
- GI50 [4]: 4.89 µM
- TGI [4]: 28.5 µM
- GI50 [5]: 23.2 µM
- TGI [5]: 47.9 µM
- GI50 [6]: 42.7 µM
- TGI [6]: > 100 µM
- GI50 [7]: 19.6 µM
- TGI [7]: 39.2 µM
- GI50 [8]: 19.3 µM
- TGI [8]: 44.5 µM
- GI50 [9]: 23.4 µM
- TGI [9]: 49.6 µM
- GI50 [10]: 18 µM
- TGI [10]: 35 µM
